According to patent US5350864A, “Aminoalkylcarbamyl derivatives of forskolin as intermediates for the synthesis of useful forskolin derivatives” (The United States of America as represented by the …, priority 1990, dated 1994):
“Also recorded” adds a separate entry of the source. Like-named read-outs stand apart in the source and are kept apart here. One block for each molecule: values may come before it.

Legend:
adenylate cyclase [1] = test: Filtration binding assay, ^125 I-labelled derivative 19 (6-^125 I-HPP-Fsk) to bovine brain membranes; settings: for inhibition of 6-^125 I-HPP-Fsk binding: 60 min
From the text: (§1) Derivative 19 (6-^125 I-HPP-Fsk) was used to develop a binding assay for adenylate cyclase (Example 4). […] Therefore, a filtration assay can be used to separate the bound from free ligand and determine the amount of high affinity binding. […] Analogs of forskolin that activate adenylate cyclase inhibit the binding of 6-^125 I-HPP-Fsk to membranes. The ability of an agent to inhibit 6-^125 I-HPP-Fsk binding to membranes is therefore indicative of its ability to stimulate adenylate cyclase.
Binding of 6-^125 I-HPP-Fsk to Membranes--Crude membranes from bovine brain were incubated for 60 minutes at […] 20° C. with 20,000 cpm of 6-^125 I-HPP-Fsk. Binding equilibrium was reached by 45 minutes and was constant for at least 2 hours (data not shown). The incubations were carried out at 20° C. for 60 minutes in 12×75 glass test tubes in a total volume of 0.4 mL […] Tris-HCl buffer, pH 7.4. The membranes (0.40 mg/tube) were incubated in the presence of 5 mM MgCl2 and 10 mM NaF. The assay was terminated by the addition of 5 mL of cold Tris-HCl buffer to the tubes and rapid filtration over Whatman GF/C filters using a Brandel cell harvester. The assay was terminated as described above and the filters counted in a gamma counter. The nonspecific binding was calculated as the amount of label not displaced by 20 uM forskolin. The non specific binding was about 20% of the total bound.

glucose transporter [2] = settings: cited from earlier work
P-glycoprotein [3] = molecular target: T1, P-glycoprotein (Homo sapiens, UniProt P08183)
adenylate cyclase [4] = settings: literature, cited from earlier work
adenylate cyclase [5] = test: Photolabelling of bovine brain membranes, SDS gel electrophoresis; assay type: binding
Description: (§2) Derivative 20 (6-AIPPS-Fsk) is incubated with partially purified preparations of bovine brain adenylate cyclase, photolyzed, and then the radioactive proteins are analyzed by SDS gel electrophoresis. […] 6-AIPPS-Fsk can also label adenylate cyclase in crude membranes. 6-AIPPS-Fsk is incubated with bovine brain membranes, photolyzed, and the radioactive proteins are analyzed by SDS gel electrophoresis.

cancer cells = settings: certain cancer cells; literature; cited from earlier work
glucose transporter [6] = molecular target: T2, glucose transporter (Homo sapiens, UniProt P11166); test: Filtration binding assay, ^125 I-labelled derivative 8 (7-^125 I-HPP-Fsk) to human red blood cell membranes; settings: for inhibition of 7-^125 I-HPP-Fsk binding: human red blood cell membranes
T2 construct: Crude membranes from human red blood cells; from tissue; host or cells: human red blood cells, membranes
T2 sequence (P11166 1-492): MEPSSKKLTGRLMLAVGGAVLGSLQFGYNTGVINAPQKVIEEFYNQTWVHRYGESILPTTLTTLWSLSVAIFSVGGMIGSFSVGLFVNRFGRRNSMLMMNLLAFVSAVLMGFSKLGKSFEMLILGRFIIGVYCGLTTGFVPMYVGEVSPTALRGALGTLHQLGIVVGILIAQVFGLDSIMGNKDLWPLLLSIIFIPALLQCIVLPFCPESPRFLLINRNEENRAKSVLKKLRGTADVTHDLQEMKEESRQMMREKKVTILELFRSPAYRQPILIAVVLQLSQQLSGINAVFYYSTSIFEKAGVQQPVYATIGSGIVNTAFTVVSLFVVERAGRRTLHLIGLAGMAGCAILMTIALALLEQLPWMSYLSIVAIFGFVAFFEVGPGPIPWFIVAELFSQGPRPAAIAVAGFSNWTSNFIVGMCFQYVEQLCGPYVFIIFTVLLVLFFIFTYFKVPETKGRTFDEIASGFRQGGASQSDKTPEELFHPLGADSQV
Description: Binding of 7-^125 IHPP-Fsk to Membranes--Crude membranes from human red blood cells were incubated for 60 minutes at 20° C. with 20,000 cpm of 7-^125 IHPP-Fsk. […] The incubations were carried out at 20° C. for 60 minutes in 12×75 glass test tubes in a total volume of 0.4 mL 50 mM Tris-HCl buffer, pH 7.4. The assay was terminated by the addition of 4 mL of cold Tris-HCl buffer to the tubes at rapid filtration over Whatman GF/C filters using a Brandel cell harvester. The assay was terminated as described above and the filters counted in a gamma counter. The nonspecific binding was calculated as the amount of label not displaced by 20 μM forskolin.

[7] = literature; cited from earlier work
P-glycoprotein [8] = test: Binding to the P-glycoprotein
adenylate cyclase [9] = test: Photolabelling of partially purified bovine brain adenylate cyclase, SDS gel electrophoresis; assay type: binding
Description: as §2

[10] = test system: bovine brain adenylate cyclase; test: Activation of bovine brain adenylate cyclase; assay type: biochemical; settings: relative to forskolin
[11] = Stability to heating in base; assay type: physicochemical; settings: heating in 0.1N KOH in methanol, two hours, 60° C.
Description: The 7-aminoethylcarbamate can be synthesized using the 1,9-dimethylformamide acetal of 7-desacetylforskolin as starting material (see synthetic scheme of FIG. 2). The selective reactivity of carbonyldiimidazole (CDI) with the equatorial 7β-hydroxyl group is exploited to form the 7-acylimidazole intermediate. The reaction of the 7-acylimidazole intermediate with ethylenediamine produces the 7-aminoethylcarbamate of forskolin (see 3 in FIG. 1 and Example 1). The same procedure is carried out to produce 7β-aminobutylcarbamate (5), 7β-aminohexylcarbamate (6), and the 7β-aminoheptylcarbamate (7) of forskolin. The 7β-aminoalkylcarbamates of forskolin are very stable compounds. The 7β-aminoethylcarbamate of forskolin is stable to heating in 0.1N KOH in methanol for two hours at 60° C.

Water solubility = assay type: physicochemical; settings: relative to forskolin
adenylate cyclase [12] = test: Binding of 6-^125 I-HPP-Fsk to membranes from human platelets
From the text: as §1

P-glycoprotein [13] = molecular target: T1, P-glycoprotein; test: Photolabelling of membranes from human ovarian carcinoma cell line overexpressing P-glycoprotein
glucose transporter [14] = molecular target: T3, glucose transporter (Homo sapiens, UniProt P11169); test: Binding of 7-^125 I-HPP-Fsk to human platelets
T3 construct: other tissues including bovine brain, rat heart, rat muscle, and human platelets; from tissue; host or cells: human platelets
T3 sequence (P11169 1-496): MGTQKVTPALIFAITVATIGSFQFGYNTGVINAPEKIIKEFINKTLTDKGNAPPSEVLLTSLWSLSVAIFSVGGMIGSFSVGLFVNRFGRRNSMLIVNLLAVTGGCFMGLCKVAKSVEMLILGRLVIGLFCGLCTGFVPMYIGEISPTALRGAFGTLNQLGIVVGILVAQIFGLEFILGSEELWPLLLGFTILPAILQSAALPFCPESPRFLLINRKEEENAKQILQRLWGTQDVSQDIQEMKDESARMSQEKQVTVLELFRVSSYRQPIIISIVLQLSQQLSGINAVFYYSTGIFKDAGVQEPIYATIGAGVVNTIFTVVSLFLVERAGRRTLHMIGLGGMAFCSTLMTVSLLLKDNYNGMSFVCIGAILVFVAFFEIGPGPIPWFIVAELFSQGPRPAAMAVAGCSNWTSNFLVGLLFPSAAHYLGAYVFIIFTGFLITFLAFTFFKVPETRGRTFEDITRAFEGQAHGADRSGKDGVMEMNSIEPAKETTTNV
From the text: (§3) 7-^125 I-HPP-Fsk also binds with high affinity to other tissues including bovine brain, rat heart, rat muscle, and human platelets. The binding of 7-^125 I-HPP-Fsk to these tissues is inhibited by D-glucose and cytochalasin B. Therefore, 7-^125 I-HPP-Fsk binds with high affinity to the glucose transporter in diverse tissues.

glucose transporter [15] = molecular target: T2, glucose transporter; test: Photolabelling of human red blood cell membranes, SDS gel electrophoresis; assay type: binding
Description: Derivative 9 (7-AIPPS-Fsk) is incubated with human red blood cell membranes, photolyzed, and then the radioactive proteins were analyzed by SDS gel electrophoresis.

glucose transporter [16] = test: Binding of 7-^125 I-HPP-Fsk to bovine brain
From the text: as §3

glucose transporter [17] = settings: read-out: affinity of cytochalasin B; cited from earlier work
glucose transporter [18] = test: Binding of 7-^125 I-HPP-Fsk to rat heart
From the text: as §3

glucose transporter [19] = test: Binding of 7-^125 I-HPP-Fsk to rat muscle
From the text: as §3

T1 sequence (P08183 whole entry): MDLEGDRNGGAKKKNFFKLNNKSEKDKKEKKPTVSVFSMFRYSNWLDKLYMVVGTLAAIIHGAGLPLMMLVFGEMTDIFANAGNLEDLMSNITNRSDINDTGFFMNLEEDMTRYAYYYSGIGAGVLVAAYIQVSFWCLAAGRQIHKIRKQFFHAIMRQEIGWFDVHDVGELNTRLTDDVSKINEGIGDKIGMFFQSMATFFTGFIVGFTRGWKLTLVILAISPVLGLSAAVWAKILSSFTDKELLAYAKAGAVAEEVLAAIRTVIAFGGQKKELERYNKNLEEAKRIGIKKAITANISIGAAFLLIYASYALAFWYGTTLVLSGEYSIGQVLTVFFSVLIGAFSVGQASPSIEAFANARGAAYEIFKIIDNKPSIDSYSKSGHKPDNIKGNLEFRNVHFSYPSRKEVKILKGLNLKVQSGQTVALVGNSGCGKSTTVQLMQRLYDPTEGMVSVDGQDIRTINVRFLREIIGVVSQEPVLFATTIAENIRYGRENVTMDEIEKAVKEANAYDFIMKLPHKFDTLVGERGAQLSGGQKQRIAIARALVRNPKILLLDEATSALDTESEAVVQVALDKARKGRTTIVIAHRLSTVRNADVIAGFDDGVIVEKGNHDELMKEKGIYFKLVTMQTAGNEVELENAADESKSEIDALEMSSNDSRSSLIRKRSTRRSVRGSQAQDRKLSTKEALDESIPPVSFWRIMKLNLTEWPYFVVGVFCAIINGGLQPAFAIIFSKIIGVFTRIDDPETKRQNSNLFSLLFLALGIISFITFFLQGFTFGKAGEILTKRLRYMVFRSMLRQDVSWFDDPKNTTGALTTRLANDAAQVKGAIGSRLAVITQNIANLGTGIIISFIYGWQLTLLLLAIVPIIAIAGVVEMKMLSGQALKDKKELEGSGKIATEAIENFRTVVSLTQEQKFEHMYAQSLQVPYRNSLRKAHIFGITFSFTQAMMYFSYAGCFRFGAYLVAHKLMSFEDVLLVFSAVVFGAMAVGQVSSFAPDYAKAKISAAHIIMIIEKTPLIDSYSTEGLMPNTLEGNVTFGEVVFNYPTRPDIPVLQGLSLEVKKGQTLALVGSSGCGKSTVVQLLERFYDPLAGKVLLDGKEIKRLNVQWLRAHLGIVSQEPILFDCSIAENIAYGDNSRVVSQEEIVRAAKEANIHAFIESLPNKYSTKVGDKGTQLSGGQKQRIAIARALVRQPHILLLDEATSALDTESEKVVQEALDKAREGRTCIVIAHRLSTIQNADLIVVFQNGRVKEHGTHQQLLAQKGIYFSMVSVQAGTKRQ

SMILES: C=C[C@@]1(C)CC(=O)[C@@H]2[C@@]3(C)CCCC(C)(C)[C@@H]3[C@H](O)[C@H](OC(C)=O)[C@@]2(C)O1 [1,9-dideoxyforskolin]
inhibition of 6-^125 I-HPP-Fsk binding (adenylate cyclase [1]; bovine brain membranes, 20° C.): not by 1,9-dideoxyforskolin
inhibition of glucose transport (glucose transporter [2]; adipocyte membranes, literature): inhibit glucose transport in adipocyte membranes
inhibition of labelling by 6-AIPPS-Fsk (P-glycoprotein [3]): more potent at inhibiting the labelling by 6-AIPPS-Fsk than forskolin
activation of adenylate cyclase (adenylate cyclase [4]): inability
activation of adenylate cyclase (adenylate cyclase [4]; listed as 1,9-Dideoxyforskolin): does not activate adenylate cyclase; also recorded: not active at adenylate cyclase
inhibition of labelling by 6-AIPPS-Fsk (adenylate cyclase [5]): not inhibited
sensitization to cytotoxic effects of drugs (cancer cells): can sensitize certain cancer cells to the cytotoxic effects of drugs

SMILES: C=C[C@@]1(C)CC(=O)[C@]2(O)[C@@]3(C)[C@@H](O)CCC(C)(C)[C@@H]3[C@H](O)[C@H](OC(C)=O)[C@@]2(C)O1 [Compound 1, forskolin]
inhibition of 6-^125 I-HPP-Fsk binding (adenylate cyclase [1]; bovine brain membranes, 20° C.): inhibited
binding affinity / selectivity (glucose transporter [6]): binds to the glucose transporter in human red blood cells
inhibition of 7-^125 I-HPP-Fsk binding (glucose transporter [6]): inhibited
potency at activating adenylate cyclase versus inhibiting glucose transport (glucose transporter [2]; relative to adenylate cyclase activation): equipotent
cardiotonic effects [7]: marked cardiotonic effects
binding to P-glycoprotein (P-glycoprotein [8]): bind to the P-glycoprotein
activation of adenylate cyclase (adenylate cyclase [4]): activate the enzyme adenylate cyclase and increase intracellular cyclic AMP
inhibition of labelling by 6-AIPPS-Fsk (adenylate cyclase [9]): inhibited
sensitization to cytotoxic effects of drugs (cancer cells): can sensitize certain cancer cells to the cytotoxic effects of drugs

stability [11]: stable
potency relative to 6-aminoethylcarbamyl derivative 4 at inhibiting binding of 7-^125 I-HPP-Fsk (glucose transporter [6]; erythrocyte membranes): about 30 fold
water solubility (Water solubility): enhanced water solubility
SMILES: C=C[C@@]1(C)CC(=O)[C@]2(O)[C@@]3(C)[C@@H](O)CCC(C)(C)[C@@H]3[C@H](O)[C@H](OC(=O)NCCN)[C@@]2(C)O1 [Compound 3, 7-aminoethyl-carbamylforskolin]
extent of stimulation of adenylate cyclase [10]: stimulate adenylate cyclase to a greater extent than forskolin

SMILES: C=C[C@@]1(C)CC(=O)[C@]2(O)[C@@]3(C)[C@@H](O)CCC(C)(C)[C@@H]3[C@H](OC(=O)NCCNC(=O)CCc3ccc(O)c([125I])c3)[C@H](OC(C)=O)[C@@]2(C)O1 [Derivative 19]
time binding was constant (adenylate cyclase [1]; 20° C.): at least 2 hours
time to binding equilibrium (adenylate cyclase [1]; 20° C.): ≤ 45 min
selectivity of 6-^125 I-HPP-Fsk binding (adenylate cyclase [1]; adenylate cyclase versus glucose transporter, listed as 6-^125 I-HPP-Fsk): not binding with high affinity to the glucose transporter in brain tissue; also recorded: specific for adenylate cyclase
binding affinity (adenylate cyclase [1]; bovine brain membranes): high affinity
Kd (adenylate cyclase [1]; membranes from bovine brain): ~25 nM
Kd (adenylate cyclase [12]): ~25 nM

SMILES: COc1cccc2c1C(=O)c1c(O)c3c(c(O)c1C2=O)C[C@@](O)(C(=O)CO)C[C@@H]3O[C@H]1C[C@H](N)[C@H](O)[C@H](C)O1 [adriamycin]
inhibition of labelling by 6-AIPPS-Fsk (P-glycoprotein [13]): inhibited

SMILES: C=C1C(C)C2C(Cc3ccccc3)NC(=O)C23OC(=O)/C=C/C(O)CCCC(C)C/C=C/C3C1O (stereo not drawn) [cytochalasin B]
inhibition of 7-^125 I-HPP-Fsk binding (glucose transporter [14]): inhibited
inhibition of 6-^125 I-HPP-Fsk binding (adenylate cyclase [1]; bovine brain membranes, 20° C.): not inhibited
inhibition of 7-^125 I-HPP-Fsk binding (glucose transporter [6]): inhibition of binding; also recorded: inhibited
inhibition of 7-^125 I-HPP-Fsk binding (glucose transporter [6]; listed as cytochlasin B): inhibited
inhibition of labelling by 7-AIPPS-Fsk (glucose transporter [15]): inhibited
inhibition of 7-^125 I-HPP-Fsk binding (glucose transporter [16]): inhibited
Kd (glucose transporter [17]): ~1000 nM
inhibition of 7-^125 I-HPP-Fsk binding (glucose transporter [18]): inhibited
inhibition of 7-^125 I-HPP-Fsk binding (glucose transporter [19]): inhibited
